Patent US20220160669A1, “PARENTERAL NUTRITION FORMULATION” (BAXTER INTERNATIONAL INC., priority 2020, published 2022)
Entries after “also recorded” stand apart in the source; their conditions may differ.

Columns and labels:
[1] = system: Neonatal Yorkshire/Landrace cross bred piglets; assay: Duodenal mucosal resistance (Ussing chamber), PN-fed neonatal piglets; format: in vivo, pig; set-up: key: + denotes a positive effect (compared to standard PN); ++ a very positive effect; − denotes no difference; settings: 10 days, compared to standard PN
[2] = system: Neonatal Yorkshire/Landrace cross bred piglets; assay: as above; format: in vivo, pig; set-up: key to Duodenal Mucosal Resistance (Ussing chamber): +++ indicate P < 0.01; ++ indicates P < 0.05; + indicates positive trends; = denotes no significant P value; − denotes negative trends; key to Duodenal mucosal resistance, Grouping (Fisher's LSD test): Groups that do not share a letter are significantly different; ab: Groups that do not share a letter are significantly different; b: Groups that do not share a letter are significantly different; settings: for Mean duodenal mucosal resistance: N 12; for Duodenal mucosal resistance, Grouping (Fisher's LSD test): PN group a, EN group b; for Duodenal Mucosal Resistance (Ussing chamber): compared to standard PN (s-PN)
Excerpt: It is known also that there is a relationship between intestinal epithelial integrity and intestinal health (Thomson et al., The Ussing chamber system for measuring intestinal permeability in health and disease, BMC Gastroenterology 2019; 19:98). Impairment of barrier function has been linked to intestinal diseases such as, for example, ulcerative colitis and Crohn's disease. The so-called Ussing system offers an ex vivo measurement of the permeability or duodenal mucosal resistance. The system allows to measure said duodenal mucosal (transepithelial) resistance (TER), which can be determined to give an overall measurement of gut integrity. A low TER value is indicative of increased permeability. Prior studies have shown that decreased TER under inflammatory conditions was associated with down regulation of “sealing” tight junctional proteins. Accordingly, determining epithelial integrity by means of the Ussing chamber constituted one option to assess the influence of various nutritional options (e.g. EN vs PN) and various PN compositions (see Example 3.5) on gut health and specifically on local inflammatory incidents.
(§1) Neonatal Yorkshire/Landrace cross bred piglets (n=72; six at a time from the same litter, repeating 12 times) were obtained from Oak Hill Genetics (Ewing, Ill.) after 48-hour sow reared for colostrum consumption and iron supplementation.
Duodenal mucosal resistance was determined according to known methods and according to Tappenden et al., Short-Chain Fatty Acid-Supplemented Total Parenteral Nutrition Enhances Functional Adaptation to Intestinal Resection in Rats. Gastroenterology 1997; 112:792-802. Pieces of intestine (1 cm^2) were cut out, and the tissue was mounted as flat sheets in incubation chambers containing oxygenated Krebs' bicarbonate buffer (pH 7.4) at 37° C. Tissue discs were preincubated in this buffer for 15 minutes to allow equilibration at this temperature. After preincubation, the chambers were transferred to other beakers containing [^3H]inulin and various 14C probe molecules in oxygenated Krebs' bicarbonate (pH 7.4 and 37° C.). The concentration of solutes was 4, 8, 16, 32, or 64 mmol/L for D-glucose and 16 mmol/L for L-glucose. The preincubation and incubation solutions were mixed at identical stirring rates with circular magnetic bars, and the stirring rates were adjusted by means of a strobe light. A stirring rate of 600 rpm was selected to achieve low effective resistance of the intestinal unstirred water. The experiment was terminated by removing the chambers and quickly rinsing the tissue in cold saline for approximately 5 seconds. The exposed mucosal tissue was then cut out of the chamber with a circular steel punch. For all probes, the tissue was dried overnight in an oven at 55° C. The dry weight of the tissue was determined, the sample was saponified with 0.75N NaOH, scintillation fluid was added (Beckman Ready Solv HP; Beckman, Mississauga, ON), and radioactivity was determined by means of […] an external standardization technique to correct for variable quenching of the two isotopes. The mucosal weight was determined after scraping of the intestine from adjacent samples not used for uptake studies. The weight of the mucosa in the samples used to measure uptake was determined by multiplying the dry weight of the intestinal sample by the percentage of the intestinal wall comprised of mucosa.

[3] = system: Anti-inflammatory cytokines; assay: Anti-inflammatory cytokines, summary (site not stated); format: in vivo, pig; set-up: key: + denotes a positive effect (compared to standard PN); ++ a very positive effect; − denotes no difference; settings: compared to standard PN
Excerpt: as §1
The influence of the respective supplements on inflammation was investigated by determining Il-6, Il-1beta, TNF-alpha and Il-10 serum levels in the intervention groups compared to EN and PN according to Milo et al., Effects of Short-Chain Fatty Acid-Supplemented Total Parenteral Nutrition on Intestinal Pro-Inflammatory Cytokine Abundance. Digestive Diseases and Sciences 2002; 47:2049-2055. Jejunal and ileal samples were homogenized in double-distilled water, and the Bradford protein assay (Biorad, Hercules, Calif., USA) was performed on homogenate and plasma samples. Protein (30 μg) from each sample was denatured by boiling, and proteins were separated by size using 12.5% sodium dodecyl sulfate polyacrylamide gel electrophoresis. Separated proteins were transferred to polyvinylidene difluoride membranes (Biorad) using a semidry transfer apparatus (Biorad). Western blot analysis for TNF-alpha, IL-1beta, Il-10 and IL-6 was performed using porcine-specific polyclonal antibodies (Endogen, Woburn, Mass., USA). A mouse anti-pig monoclonal TNF-alpha antibody was used to detect TNF-alpha ([…]). Rabbit anti-pig polyclonal antibodies specific for IL-1beta and IL-6 were used to detect IL-1beta (17,500 kDa), Il-10 (18,600 kDa) and IL-6 (26,000 kDa). Membranes were developed using the Opti-4CN kit (Biorad) and photographed using the FOTO/Analyst Image Analysis System (Fotodyne, Inc., Hartland, Wis., USA). Densitometry of TNF-alpha, IL-1beta, IL-6, and Il-10 was performed using Collage Image Analysis Software 4.0 (Fotodyne, Inc.). Results are shown in FIG. 15 (Il-6), FIG. 16 (Illbeta), FIG. 17 (TNF-alpha) and FIG. 18 (Il-10).

[4] = Stability of butyrate derivative compositions (sterilization, shelf-life); settings: for free butyric acid released during the sterilization of the bags: lipid chamber, GC-FID
[5] = system: Neonatal Yorkshire/Landrace cross bred piglets; assay: Brain structure development by MRI; format: in vivo, pig; set-up: key: + denotes a positive effect (compared to standard PN); ++ a very positive effect; − denotes no difference; settings: compared to standard PN
Excerpt: On study day 9, the piglets were submitted to Magnetic Resonance Imaging (MRI) using an Agilent 9.4 Tesla MRI system (Santa Clara, Calif.) to assess brain structural development and body composition. Heart rate and respiration were monitored during the entire MRI scan. For anatomic assessment of the brain targeting the hippocampus, images were obtained using a 3D T1-weighted magnetization prepared gradient-echo sequence: repetition time=1,900 ms; echo time=2.48 ms; inversion time=900 ms, flip angle=9°, matrix=256×256 (interpolated to 512×512), slice thickness=1.0 mm. For body composition assessment, a multi-slice, spin-echo technique was used to image the truncal area (longissimus fat/muscle): echo time=20 ms; recovery time=400 ms with four-signal averaging. […] Total scanning time was approximately 60 minutes to include both brain and body composition scanning. The MRI images were analyzed using OsiriX (Bernex, Switzerland). […] The average body weight and abdominal girth of the piglets in the Study Groups was also monitored.

free butyric acid released during the sterilization of the bags [4]	Compound	Tight junctions ([1]; 10 mmol/L in PN)	Mean duodenal mucosal resistance ([2]; 10 mmol/L TPN (Groups A, C, D))	Duodenal mucosal resistance, Grouping (Fisher's LSD test) ([2]; 10 mmol/L TPN (Groups A, C, D))	duodenal mucosal resistance, in words ([2]; 10 mmol/L TPN (Groups A, C, D), listed as D)	Anti-inflammatory cytokines ([3]; 10 mmol/L in PN)	Brain ([5]; 10 mmol/L in PN)	Tight junctions ([1]; 30 mmol/L in PN)	duodenal mucosal resistance, in words ([2]; 10 mmol/L TPN (Groups A, C, D))	Duodenal Mucosal Resistance (Ussing chamber) ([2]; 10 mmol/L)	duodenal mucosal resistance, in words ([2]; 30 mmol/L TPN (Group B))	Mean duodenal mucosal resistance ([2]; 30 mmol/L TPN (Group B))	Duodenal mucosal resistance, Grouping (Fisher's LSD test) ([2]; 30 mmol/L TPN (Group B))	Duodenal Mucosal Resistance (Ussing chamber) ([2]; 30 mmol/L)	Anti-inflammatory cytokines ([3]; 30 mmol/L in PN)	Brain ([5]; 30 mmol/L in PN)	duodenal mucosal resistance, in words ([2]; 10 mmol/L TPN (Groups A, C, D), listed as C)	stable shelf-life ([4]; 25° C. and 40% relative humidity (RH), in an amino acid formulation)	stability during production and sterilization ([4]; amino acid chamber / amino acid formulation)	concentration at which aqueous composition is producible and stable ([4]; aqueous arginine butyrate composition)
only very limited amounts	CCCCCCCCCCCCCCCC(=O)OCC(COC(=O)CCC)OC(=O)CCCCCCCCCCCCCCC (stereo not drawn) [1,2-Dipalmitoyl 3-butyryl glycerol]	−	15.8264	ab	significantly different from the PN; also recorded: almost as good as in Group E	+	−													
only very limited amounts	CCCC(=O)OCC(COC(=O)CCC)OC(=O)CCC [Tributyrin]	−	21.8442	ab		−	−	−	significantly different from the PN	=	significantly different from the PN	16.0234	ab	=	+	−				
	L-arginine, butanoate (3:4) [Arginine butyrate]	++	8.2593	b		++	−		significantly lower loss of mucosal resistance compared to the other intervention groups	++^2 (++ indicates P < 0.05)							significantly different from the PN	at least 12 months	stable during production, sterilization	up to 5500 mg/L
